Here are results for 34 compounds from ChEMBL document CHEMBL4665725, “Identification of potent inhibitors of the sortilin-progranulin interaction” (Bioorg Med Chem Lett, 2020).

The structures appear in SMILES notation. Values after ≈ are worked out from the molar mass of the structure shown.

The target of data set [1] is T1, Sortilin/Progranulin (Homo sapiens, UniProt P28799+Q99523).
T1 sequence (Q99523 whole entry): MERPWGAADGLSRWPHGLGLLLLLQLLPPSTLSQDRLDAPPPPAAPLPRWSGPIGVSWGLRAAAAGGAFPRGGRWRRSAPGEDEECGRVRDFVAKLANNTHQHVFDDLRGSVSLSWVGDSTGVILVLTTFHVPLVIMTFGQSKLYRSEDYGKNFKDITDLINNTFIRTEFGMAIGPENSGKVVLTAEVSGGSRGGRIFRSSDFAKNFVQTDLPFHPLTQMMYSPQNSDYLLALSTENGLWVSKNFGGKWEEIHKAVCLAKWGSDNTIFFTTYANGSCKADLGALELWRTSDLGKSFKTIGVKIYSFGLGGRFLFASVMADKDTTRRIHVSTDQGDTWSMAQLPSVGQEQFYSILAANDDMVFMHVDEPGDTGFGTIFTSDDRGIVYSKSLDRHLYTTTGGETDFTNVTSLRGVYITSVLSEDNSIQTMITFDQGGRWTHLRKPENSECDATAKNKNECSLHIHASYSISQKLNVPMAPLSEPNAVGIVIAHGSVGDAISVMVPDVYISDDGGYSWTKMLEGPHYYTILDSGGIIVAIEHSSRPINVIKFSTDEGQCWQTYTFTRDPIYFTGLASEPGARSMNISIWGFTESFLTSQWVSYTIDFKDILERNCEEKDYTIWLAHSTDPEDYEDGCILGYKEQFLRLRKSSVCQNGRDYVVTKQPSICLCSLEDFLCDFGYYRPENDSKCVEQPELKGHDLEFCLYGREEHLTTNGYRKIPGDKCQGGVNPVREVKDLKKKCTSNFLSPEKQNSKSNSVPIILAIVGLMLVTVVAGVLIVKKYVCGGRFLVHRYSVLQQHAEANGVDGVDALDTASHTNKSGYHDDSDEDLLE
T1 sequence (P28799 whole entry): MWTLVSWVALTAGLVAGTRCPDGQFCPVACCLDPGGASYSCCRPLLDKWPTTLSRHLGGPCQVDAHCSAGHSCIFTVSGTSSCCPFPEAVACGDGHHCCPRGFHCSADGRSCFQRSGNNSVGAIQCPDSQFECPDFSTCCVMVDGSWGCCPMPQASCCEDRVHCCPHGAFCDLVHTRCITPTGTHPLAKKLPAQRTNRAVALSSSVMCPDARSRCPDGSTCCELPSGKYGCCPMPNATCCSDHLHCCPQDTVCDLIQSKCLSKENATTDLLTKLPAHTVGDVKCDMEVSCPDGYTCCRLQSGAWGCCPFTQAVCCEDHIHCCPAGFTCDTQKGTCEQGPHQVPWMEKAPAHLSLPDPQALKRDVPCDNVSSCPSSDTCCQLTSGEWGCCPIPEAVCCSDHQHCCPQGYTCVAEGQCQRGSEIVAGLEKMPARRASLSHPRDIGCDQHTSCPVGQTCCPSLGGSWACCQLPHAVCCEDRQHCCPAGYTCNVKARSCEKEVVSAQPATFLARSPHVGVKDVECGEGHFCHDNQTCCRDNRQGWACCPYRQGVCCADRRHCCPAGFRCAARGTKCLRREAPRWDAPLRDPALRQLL
Nature of the data set: Inhibition of SORT1 (unknown origin)-GRN (unknown origin) protein-protein interaction by HTRF assay.

A short description of data set [2]: Unbound clearance in rat. It counts as ADME. The note with it: in vivo.
Data set [3] can be described thus: Solubility of the compound at pH 7. The class given is physicochemical. The settings on record: buffer.
A short description of data set [4]: Apparent permeability of the compound. It counts as ADME. The settings on record: not told.
Data set [5] in a line: Solubility of the compound at pH 2. It counts as physicochemical. The settings on record: buffer.
Data set [6] can be described thus: Protein binding in rat plasma. The class given is ADME, cell-free. The settings on record: read-out: PPB (converted).
Data set [7] addresses T1, Sortilin/Progranulin. Nature of the data set: Inhibition of SORT1 (unknown origin)-GRN (unknown origin) protein-protein interaction assessed as increase in progranulin level by cell-based ELISA. (An ELISA detects its analyte on a solid surface through an enzyme-linked reagent.)
Data set [8] in a line: Clearance in rat. The settings on record: in vivo. It counts as ADME.
In data set [9] the test system is P-gp. Nature of the data set: Substrate activity at rat P-gp assessed as efflux ratio. The class given is ADME. The settings on record: not told.
Data set [10] can be described thus: Half life in rat. The note with it: in vivo. It counts as ADME.
In data set [11] the test system is P-gp. Nature of the data set: Substrate activity at human P-gp in MDR1 cells assessed as efflux ratio. The class given is ADME, cell-based.
Data set [12] in a line: Oral bioavailability in rat. The class given is ADME, organism-based. The note with it: in vivo.

Broadly, the IC50 is the concentration that inhibits the measured activity by half. For `CC(C)C[C@H](NC(=O)c1cnn(C)c1)C(=O)O`, inhibition in data set [1] was half-maximal at 5.3 µM (IC50).

For `CC(C)C[C@H](NC(=O)c1cnc2ccccc2n1)C(=O)O`, the concentration for half-maximal inhibition (IC50) in data set [1] is 6.3 µM.

`CC(C)(C)c1cc(C(=O)O)n(Cc2cc(Cl)cc(Cl)c2)n1` displayed an IC50 in data set [1] of 2.1 µM.

On to `CC(C)(C)c1cc(C(=O)O)n(Cc2ccc(-n3cccn3)nc2)n1`, for which, in [1], the IC50 came to 3 µM.

As a reminder, the solubility is the concentration that dissolves in the medium under given conditions. High values mean a readily soluble substance, low ones a poorly soluble substance. A word on the Papp: it is a coefficient for how fast a substance crosses the barrier. A word on the clearance: it is the volume of plasma or blood freed of the substance per unit of time. By efflux ratio is commonly meant the permeability from basolateral to apical divided by that in the opposite direction, in the common usage. Broadly, the half-life is how long it takes for the measured level to halve. A lower half-life goes with rapid decline. `CC(C)(C)CC[C@H](NC(=O)c1cc(Cl)c[nH]1)C(=O)O` returned a CL free in [2] of 134 mL/min/kg. Also, the values for the solubility in data set [3] and in data set [5] were 135 µM (≈ 38.7 µg/mL) and 123 µM (≈ 35.3 µg/mL), respectively. In data set [4], the Papp amounted to 4.8 ×10⁻⁶ cm/s. Further, in data set [6], the fraction unbound is 0.0216. Moreover, the values for the IC50 in data set [7] and in data set [1] were 0.29 µM and 0.09 µM, respectively. In [8], this compound yielded a clearance of 2.8 mL/min/kg. The values for the efflux ratio in [9] and in data set [11] were 1.3 and 2, respectively. In data set [10], this compound gave a half-life of 1.5 h.

In the case of `CC(C)(C)C[C@H](NC(=O)c1ccc(Oc2ccccc2)nc1)C(=O)O`, the midpoint of inhibition in [1], the IC50, lay at 0.065 µM.

`C=C(C)C[C@H](NC(=O)c1cc(Cl)cc(Cl)c1)C(=O)O` displayed an IC50 in [1] of 17.1 µM.

Consider `CC(C)(C)c1cc(C(=O)O)n(Cc2nnc(-c3ccccc3)o2)n1`, for which inhibition in data set [1] was half-maximal at 0.49 µM (IC50).

As to `CC(C)C[C@H](NC(=O)c1cccc(Cl)c1)C(=O)O`, 4.5 µM corresponded to half-maximal inhibition in data set [1] (IC50).

In turn, `O=C(N[C@@H](CC1CCCCC1)C(=O)O)c1cc(Cl)cc(Cl)c1` came in with an IC50 in [1] of 2.3 µM.

`CC(C)C[C@H](NC(=O)c1cc(Cl)cc(Cl)c1)C(=O)O`: the IC50 in data set [1] worked out at 2.7 µM.

Consider `CC(C)(C)CC[C@H](NC(=O)c1ccc(Oc2ccccc2)nc1)C(=O)O`, for which the CL free in data set [2] worked out at 453 mL/min/kg. The solubility in data set [3] is 147 µM (≈ 52.4 µg/mL); in data set [5], 126 µM (≈ 44.9 µg/mL). Moreover, in [4], the Papp came to 7 ×10⁻⁶ cm/s. For the same compound, the fraction unbound in data set [6] is 0.0077. For the same compound, the IC50 in data set [7] worked out at 0.12 µM; in data set [1] it was 0.02 µM. This compound showed a clearance in data set [8] of 3.35 mL/min/kg. Further, the figures for the efflux ratio in data set [9] and in [11] were 3.5 and 2.2, respectively. In data set [10], the half-life is 1.6 h.

As for `O=C(N[C@@H](Cc1ccccc1)C(=O)O)c1cc(Cl)cc(Cl)c1`, the IC50 in [1] was above 67 µM.

In the case of `CC(C)(C)c1cc(C(=O)O)n(Cc2ccccc2)n1`, the IC50 in data set [1] is 2 µM.

As to `CC(C)C[C@H](NC(=O)C1CCCC1)C(=O)O`, the midpoint of inhibition in [1], the IC50, lay at 25.3 µM.

The compound `CC(C)c1cc(C(=O)O)n(CCc2ccccc2)n1` returned an IC50 in data set [1] above 67 µM.

Compound `CC(C)(C)CC(NC(=O)c1cc(Cl)cc(Cl)c1)c1nn[nH]n1` (racemic) showed an IC50 in data set [1] of 6.9 µM.

Compound `O=C(N[C@@H](CC12CC(C1)C2)C(=O)O)c1cc(Cl)cc(Cl)c1` showed an IC50 in [1] of 18 µM.

As to `CC(C)C[C@H](NC(=O)C1CN(Cc2cc(Cl)cc(Cl)c2)CCO1)C(=O)O` (stereo not given in full), the IC50 in data set [1] stood at 14.4 µM.

A word on the bioavailability: it is dose-corrected exposure relative to a reference, in per cent. On to `CC(C)(C)CC[C@H](NC(=O)c1cc(Cl)cc(Cl)c1)C(=O)O`, for which the CL free in [2] is 215 mL/min/kg. The solubility in data set [3] was 134 µM (≈ 44.5 µg/mL); in [5], 69 µM (≈ 22.9 µg/mL). Further, the Papp in [4] was 23 ×10⁻⁶ cm/s. Further, the fraction unbound in data set [6] was 0.0028. The figures for the IC50 in [7] and in data set [1] were 0.65 µM and 0.17 µM, respectively. This compound also returned a clearance in data set [8] of 0.6 mL/min/kg. Besides, the efflux ratio in [9] is 3.9; in [11], 1.8. This compound also gave a half-life in data set [10] of 5.9 h. For the same compound, in data set [12], the bioavailability worked out at 100%.

For the compound `CC(C)(C)Cc1cc(C(=O)O)n(Cc2ccccc2)n1`, the IC50 in data set [1] was found to be 6.6 µM.

Turning to `CC(C)(C)c1cc(C(=O)O)n(-c2ccccc2)n1`, the IC50 in data set [1] worked out at 7.8 µM.

On to `CC(C)C[C@H](NC(=O)c1ccc(Cl)c(Cl)c1)C(=O)O`, for which, in [1], the IC50 amounted to 4.3 µM.

`CC(C)C[C@H](NC(c1cc(Cl)cc(Cl)c1)C(F)(F)F)C(=O)O` (stereo not given in full) yielded an IC50 in data set [1] of 10.8 µM.

Take `CC(C)C[C@H](NC(=O)C(C)(C)Cc1ccc(Cl)cc1)C(=O)O`: the IC50 in data set [1] came to 6.8 µM.

`COc1cccc(C(=O)N[C@@H](CC(C)C)C(=O)O)c1` displayed an IC50 in [1] of 6.8 µM.

The compound `CC(C)(C)OC[C@H](NC(=O)c1cc(Cl)cc(Cl)c1)C(=O)O` gave an IC50 in [1] of 1.5 µM.

With `CC(C)(C)c1cc(C(=O)O)n(Cc2ccc(Oc3ccccc3)nc2)n1`, the IC50 in data set [1] worked out at 2.1 µM.

In data set [1], `CC(OC(C)(C)C)[C@H](NC(=O)c1cc(Cl)cc(Cl)c1)C(=O)O` (stereo not given in full) displayed an IC50 above 67 µM.

Consider `CC(C)(C)CCc1cc(C(=O)O)n(Cc2ccccc2)n1`, for which the IC50 in data set [1] is above 67 µM.

Turning to `CC(C)(C)c1cc(C(=O)O)n(CCc2ccccc2)n1`, the IC50 in [1] was 5.3 µM.

With `Cn1nc(C(C)(C)C)cc1C(=O)O`, the IC50 in data set [1] was 8.3 µM.

In data set [1], `CC(C)(C)C[C@H](NC(=O)c1cc(Cl)cc(Cl)c1)C(=O)O` returned an IC50 of 0.35 µM.

`O=C(N[C@@H](CC1CC1)C(=O)O)c1cc(Cl)cc(Cl)c1` registered an IC50 in data set [1] of 10.7 µM.
